Measurements: publication PMC12549899 (Nature Communications, 2025)
Numbering of substitutions follows the chain as printed. Several values for one entry are separate records, joined by “and”; a condition that tells them apart may be missing. Equal values may be shown once. Entries after “also recorded” stand apart in the source; their conditions may differ. Read-outs that look alike come from different tables or passages of the source.

Tests used:
[1] = target: T1, DrOTOP1 (Danio rerio, UniProt Q7ZWK8); experiment: Whole-cell patch-clamp, inhibition of acid-evoked currents, WT DrOTOP1 expressed in HEK-293 cells; assay type: cell-based, zebrafish (Danio rerio); conditions: for Inhibition of pH 5.5-induced currents, screen 2 / Inhibition of pH 5.5-induced currents, screen 1: 200 µM compound; for Inhibition of pH 5.5-induced currents, screen 2 / inhibition at 200 µM / Inhibition of pH 5.5-induced currents, screen 1: HEK-293 cells expressing DrOTOP1, Vm -80 mV, values of single cells; for inhibition at 200 µM: HEK293, pH 5.5, 200 µM compound; for Inhibition of pH 5.5-induced currents, screen 1: 200 µM
T1 construct: A previously generated codon-optimized full-length DrOTOP1[8]; (UniProt: Q7ZWK8) construct; expressed in transfected cells; host or cells: HEK-293 (CRL-1573, ATCC)
T1 sequence (Q7ZWK8 1-586): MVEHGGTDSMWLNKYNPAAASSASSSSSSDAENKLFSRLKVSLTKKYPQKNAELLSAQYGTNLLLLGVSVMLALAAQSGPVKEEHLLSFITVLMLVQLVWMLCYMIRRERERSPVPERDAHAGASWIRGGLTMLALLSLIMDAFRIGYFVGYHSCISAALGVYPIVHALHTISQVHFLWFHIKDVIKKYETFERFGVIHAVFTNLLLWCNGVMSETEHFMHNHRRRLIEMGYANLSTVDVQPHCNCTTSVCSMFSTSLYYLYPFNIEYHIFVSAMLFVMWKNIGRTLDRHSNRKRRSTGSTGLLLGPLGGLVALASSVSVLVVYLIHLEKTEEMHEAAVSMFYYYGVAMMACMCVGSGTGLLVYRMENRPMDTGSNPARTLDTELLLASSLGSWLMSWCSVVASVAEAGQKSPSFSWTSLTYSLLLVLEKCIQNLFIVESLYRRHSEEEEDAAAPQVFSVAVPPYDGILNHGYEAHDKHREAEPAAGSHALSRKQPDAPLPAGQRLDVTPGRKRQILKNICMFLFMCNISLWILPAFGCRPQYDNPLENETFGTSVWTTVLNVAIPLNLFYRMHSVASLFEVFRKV
From the text: The 50 molecules identified were individually tested by whole-cell patch-clamp electrophysiology for effects on DrOTOP1 expressed in human embryonic kidney (HEK)−293 cells. […] This approach enabled us to observe the on- and off-responses of each compound. To quantify the effect of each compound, we compared the current magnitude during compound application immediately before wash-off, to the peak inward current following its removal (Supplementary Fig. 2A).
(§1) HEK-293 cells (CRL-1573, ATCC) were cultured in DMEM (Thermofisher 11995073) containing 10% fetal bovine serum (Life Technology 16000044) and Penicillin-Streptomycin (100 I.U./mL) and (100 µg/mL), respectively. Cells were transfected with WT DrOTOP1 or mutant DrOTOP1 channels in 35 mm petri dishes, with ~ 500 ng DNA and 2 μL TransIT-LT1 transfection reagent (Mirus Bio Corporation, Cat # MIR2300) following the manufacturer’s protocol. All constructs were subcloned into a pcDNA3.1 vector that adds an N-terminal fusion tag consisting of an octahistidine tag followed by eGFP, a Gly-Thr-Gly-Thr linker and a 3C protease cleavage site ([…]) followed by WT DrOTOP1, WT mOTOP1, WT hOTOP1, or mutated DrOTOP1. Point mutations were generated via In-Fusion Cloning (Takara) using single-stranded DNA primers generated through IDT and sequence confirmed by Sanger sequencing (GeneWiz).
(§2) Whole-cell patch-clamp recording was performed as previously described[6],[22],[25]. Recordings were made with an Axopatch 200B amplifier, digitized with a Digidata 1322a 16-bit data acquisition system, acquired with pClamp 8.2 and analyzed with Clampfit 10 (Molecular Devices). Recordings were sampled at 5 kHz and filtered at 1 kHz. Patch Pipettes with resistance of […] were fabricated from borosilicate glass, and only recordings with a giga-Ohm seal were used in analysis. Membrane potential was held at −80 mV for the duration of recordings. At the beginning of recordings and between, cells were washed with Tyrode’s solution (see below). Once a giga-Ohm seal was reached, cells were lifted and placed in front of microcapillary tubes controlled by a Fast-Step perfusion system (Warner Instruments) so that extracellular solutions could be rapidly exchanged during each experiment.
Standard Tyrode’s solution consisted of 145 mM NaCl, 5 mM KCl, MgCl2, 2 mM CaCl2, 20 mM D-Glucose, and 10 mM HEPES (for pH 7.4). All other extracellular patch-clamp solutions contained 160 mM NMDG-Cl, 2 mM CaCl2, and the following buffers: 10 mM HEPES (for pH 7.4), 10 mM MES (for pH 6.5-5.5), 10 mM CHES for pH 10, and 10 mM HomoPIPES for (pH 5.0). pH adjusted with HCl. […] The pipette contained intracellular solution made up of 120 mM Cs-aspartate, 15 mM CsCl, 2 mM Mg-ATP, 5 mM EGTA, 2.4 mM CaCl2 (100 nM free Ca^2+), and 10 mM HEPES with a pH of 7.3. All extracellular solution osmolarity was adjusted to 300 mOsm and intracellular osmolarity was adjusted to 290 mOsm.
All data are presented as mean ± SEM unless otherwise noted, and each data point represents an independent replicant. Inhibition of compounds was quantified as ((I2peak-I1)/(I2peak))*100, where I1 is the current immediately before wash-off and I2peak is the maximum recovered current (Supplementary Fig. 2). Hill coefficients were determined by the following equation: Y = Bmax*X^h/(Kd^h + X^h).

[2] = target: T2, DrOTOP1 G130W (Danio rerio, UniProt Q7ZWK8, G130W); experiment: Whole-cell patch-clamp, inhibition of acid-evoked currents, DrOTOP1 G130W (outer site); assay type: cell-based, zebrafish (Danio rerio); conditions: DrOTOP1 G130W
T2 construct: A previously generated codon-optimized full-length DrOTOP1[8]; (UniProt: Q7ZWK8) construct; expressed in transfected cells; host or cells: HEK-293 (CRL-1573, ATCC)
T2 sequence (Q7ZWK8 1-586 G130W): T1 sequence (Q7ZWK8 1-586) with G130W
From the text: To functionally test the significance of the two binding sites identified by cryo-EM, we generated point mutations of DrOTOP1 using the binding poses and conformational changes observed in DrOTOP1_C2.2 to guide our mutations. As per the binding pose that best fits our cryo-EM density, C2.2 forms the following interactions in the outer site: hydrophobic packing against many non-polar residues W126, G130, M133, L134, F271, F570, and M573, and π-stacking with W532 (Fig. 5A). In addition, C2.2 could potentially form H-bonds with E267, if the sidechain is protonated or a water bridge is present, and with H574 if it moves closer (Fig. 5A). Likewise, C2.36 presents a heterocyclic nitrogen that can potentially form a H-bond with E267, similarly, provided a protonation or water bridge is present (Fig. 5B). In addition, C2.36 forms a T-shaped π-stacking interaction with H574, whose sidechain has rotated 90 degrees (compared to DrOTOP1_apo), presumably to accommodate the interaction (Fig. 5B). Considering other inhibitors discovered from the second round of screening, many contain functional groups like the carbonyl groups of Group 1 molecules and the heterocyclic nitrogen atoms of Group 2 molecules (Supplementary Fig. 3E), that can potentially form similar H-bonds with E267 as C2.2 and C2.36, assuming the binding modes are similar. In the central site, C2.2 binds with the following interactions: hydrophobic packing with residues V201, F271, A274, V278, and A388, π-stacking with F277, and H-bonding with E384 (Fig. 5C).
Each non-aromatic residue was mutated to tryptophan, which was expected to cause steric occlusion. […] This seemed appropriate given the small number of H-bonds in these pockets, the ambiguity of how the inhibitors fit the density, and the prevalence of hydrophobic packing interactions (Fig. 5A–C).
as §1, §2
Standard Tyrode’s solution consisted of 145 mM NaCl, 5 mM KCl, MgCl2, 2 mM CaCl2, 20 mM D-Glucose, and 10 mM HEPES (for pH 7.4). All other extracellular patch-clamp solutions contained 160 mM NMDG-Cl, 2 mM CaCl2, and the following buffers: 10 mM HEPES (for pH 7.4), 10 mM MES (for pH 6.5-5.5), 10 mM CHES for pH 10, and 10 mM HomoPIPES for (pH 5.0). pH adjusted with HCl. […]

[3] = FDA 1-3 = FDA-approved drugs, read-out: Inhibition of pH 5.5-induced currents, screen 2

CC(=O)O[C@H]1Cc2ccccc2N(C(N)=O)c2ccccc21 [eslicarbazepine acetate, reference compound]
Inhibition of pH 5.5-induced currents, screen 2 ([1]; FDA 1-3 = FDA-approved drugs, listed as FDA 2, 200 µM): 4.01% and 3.687% | inhibition at 200 µM [1, 3]: 3.48%

COCc1nc(-c2nc3c([nH]2)CCCNC3=O)no1 [C42]
Inhibition of pH 5.5-induced currents, screen 1 [1]: 1.242% and 3.465% and 1.504%

Cc1n[nH]c(CNC(=O)c2cnc3ccccc3n2)n1 [C44]
Inhibition of pH 5.5-induced currents, screen 1 [1]: 3.035% and 1.397% and 1.665%

Cc1csc(NC(=O)c2nc(C3CC3)n[nH]2)n1 [C38]
Inhibition of pH 5.5-induced currents, screen 1 [1]: 0.5534% and 0.7746% | inhibition at 200 µM ([1]; read-out: Inhibition of pH 5.5-induced currents, screen 1): 0.922%

Cc1noc(-c2csc(Cc3ccccc3)n2)n1 [C39]
Inhibition of pH 5.5-induced currents, screen 1 [1]: 1.199% and 1.966% and 0.3901%

Cc1nc(=NCCCc2ncc[nH]2)c2c([nH]1)COc1ccccc1C2 [C2.51]
Inhibition of pH 5.5-induced currents, screen 2 ([1]; FDA 1-3 = FDA-approved drugs, listed as 51, 200 µM): 16.6082% and 21.5548% | inhibition at 200 µM [1, 3]: 26.3%

Oc1ccc(-c2nnc3n2Cc2ccccc2OC3)cc1 [C2.36]
Kinetics and reversibility of inhibition ([1]; WT DrOTOP1, pH 5.5 stimulus): uniquely slow off-rate; also recorded: slowly inhibited; also recorded: poorly reversible | Wash-off compared to WT [2]: faster wash-off | Inhibition (Fig. 5N) ([2]; pH 5.5, 100 µM C2.36 according to legend of Fig. 5M, N, single cells): significantly less inhibition
